What all share (format): biochemical
In one test the target is CDK9/CycT1 (Homo sapiens, UniProt P50750). In words: ADP-Glo kinase assay on CDK enzymatic activity, CDK9/CycT1. Conditions: 10 concentrations from 10 μM, 4-fold, 60 min room temperature. The procedure, abridged: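 Compounds were tested as 10-point, 4-fold dilutions from 10 μM final, preincubated 10 min at room temperature with kinase, then reacted 60 min with CDK tide substrate and ATP. ADP formed was detected by ADP-Glo luminescence; inhibition was normalised to 1 μM AZD4573 and 0.5% DMSO controls and IC50 fitted.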
CDK9/CycT1, sequence (P50750 whole entry): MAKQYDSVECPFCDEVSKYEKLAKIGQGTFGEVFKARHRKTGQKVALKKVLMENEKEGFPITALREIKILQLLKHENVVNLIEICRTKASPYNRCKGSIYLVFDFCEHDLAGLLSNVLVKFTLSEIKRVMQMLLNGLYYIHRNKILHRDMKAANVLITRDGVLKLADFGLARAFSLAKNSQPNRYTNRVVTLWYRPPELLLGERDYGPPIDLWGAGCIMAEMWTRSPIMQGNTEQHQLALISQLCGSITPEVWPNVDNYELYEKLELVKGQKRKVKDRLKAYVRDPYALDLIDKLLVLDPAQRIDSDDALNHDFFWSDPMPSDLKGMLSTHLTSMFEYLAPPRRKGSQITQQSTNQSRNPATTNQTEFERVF
CDK9/CycT1, sequence (O60563 whole entry partner): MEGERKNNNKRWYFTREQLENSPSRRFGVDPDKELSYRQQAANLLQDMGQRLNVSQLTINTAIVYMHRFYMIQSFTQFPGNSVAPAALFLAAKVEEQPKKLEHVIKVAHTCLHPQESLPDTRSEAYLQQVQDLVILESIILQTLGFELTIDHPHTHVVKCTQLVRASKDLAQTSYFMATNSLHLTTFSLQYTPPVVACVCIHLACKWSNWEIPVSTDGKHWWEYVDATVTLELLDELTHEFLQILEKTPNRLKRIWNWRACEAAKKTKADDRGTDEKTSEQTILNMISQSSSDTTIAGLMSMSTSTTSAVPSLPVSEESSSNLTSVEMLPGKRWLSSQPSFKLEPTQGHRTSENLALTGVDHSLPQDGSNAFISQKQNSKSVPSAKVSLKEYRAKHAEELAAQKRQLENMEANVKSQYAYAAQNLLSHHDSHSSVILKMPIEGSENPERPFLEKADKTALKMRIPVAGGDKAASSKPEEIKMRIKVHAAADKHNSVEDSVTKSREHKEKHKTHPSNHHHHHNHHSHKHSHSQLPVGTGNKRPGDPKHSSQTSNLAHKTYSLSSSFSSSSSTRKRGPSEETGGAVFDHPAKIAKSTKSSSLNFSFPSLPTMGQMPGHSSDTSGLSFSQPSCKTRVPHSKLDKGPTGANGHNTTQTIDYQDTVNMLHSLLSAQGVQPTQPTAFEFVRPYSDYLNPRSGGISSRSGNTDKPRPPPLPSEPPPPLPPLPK
(ADP-Glo turns the ADP formed in a reaction into a luminescent signal.)

The target of the next test is CDK2/CycA2 (Homo sapiens, UniProt P24941). In words: ADP-Glo kinase assay on CDK enzymatic activity, CDK2/CycA2. The following applies: 10 concentrations from 10 μM, 4-fold, 60 min room temperature. From the text: (§1) Test samples: the compounds of the present invention, having structures shown above.
(§2) ADP-Glo Kinase Assay (ADP-Glo kinase kit), DMSO (dimethyl sulfoxide), CDK9/CycT1 (cyclin-dependent kinase 9/cyclin T1), CDK tide (cyclin-dependent kinase substrate peptide fragments), CDK1/CycE1 (cyclin-dependent kinase 1/cyclin E1), CDK2/CycA2 (cyclin-dependent kinase 2/cyclin A2), CDK3/CycE1 (cyclin-dependent kinase 3/cyclin E1), CDK4/CycD3 (cyclin-dependent kinase 4/cyclin D3), CDK5/p25NCK (cyclin-dependent kinase 5/p25), and AZD 4573.
(§3) A 384-well white plate, a 96-well plate, a microplate oscillator, a centrifuge, and a microplate reader.
(§4) The compounds were dissolved in DMSO and diluted 4-fold in the 96-well plate to obtain stock solutions with 10 concentration gradients, and added into a 384-well plate system to obtain a series of 10 concentration gradients of compound solutions with final concentrations of 10 μM starting and 4-fold gradient decreasing. 1 μM AZD4573 was used as compound positive control (PC) and 0.5% DMSO as solvent vehicle control (VC), ten duplicated wells each for PC and VC.
(§5) 1 μL of compound solution and 2 μL of 2× kinase solution were transferred to each well, and the plate was centrifuged at 1000 g for 30 s and left at room temperature for 10 min. A mixture of 2× substrate and ATP was prepared in 1× kinase buffer. The reaction was started after adding 2 μL of substrate and ATP into the plate. The plate was centrifuged at 1000 g for 30 s. The assay plate was closed and left at room temperature for 60 min. The reaction system was added with 4 μL of ADP Glo reagent, centrifuged at 1000 rpm for 1 min, and incubated at room temperature for 40 min. The reaction system was added with 8 μL of kinase assay reagent, centrifuged at 1000 rpm for 1 min and incubated at room temperature for 40 min. The […] was read on Biotek.
(§6) The inhibition rate was calculated according to the following formula: […]
(§7) Lumcmpd: compound fluorescence reading; Lumpositive: average value of the fluorescence reading of positive compound control; Lumvehicle: average value of the fluorescence reading of solvent vehicle control.
(§8) IC50 values were fitted using GraphPad 7.0 based on inhibition rates of compounds at different concentrations.

Another test concerns the target CDK3/CycE1 (Homo sapiens, UniProt Q00526). In words: ADP-Glo kinase assay on CDK enzymatic activity, CDK3/CycE1. Conditions: 10 concentrations from 10 μM, 4-fold, 60 min room temperature.
Excerpt: as §1, §2, §3, §4, §5, §6, §7, §8

For another test, the target named is CDK5/p25NCK (Homo sapiens, UniProt Q00535). Nature of the test: ADP-Glo kinase assay on CDK enzymatic activity, CDK5/p25NCK. Conditions: 10 concentrations from 10 μM, 4-fold, 60 min room temperature.
CDK5/p25NCK, sequence (Q00535 whole entry, species assumed): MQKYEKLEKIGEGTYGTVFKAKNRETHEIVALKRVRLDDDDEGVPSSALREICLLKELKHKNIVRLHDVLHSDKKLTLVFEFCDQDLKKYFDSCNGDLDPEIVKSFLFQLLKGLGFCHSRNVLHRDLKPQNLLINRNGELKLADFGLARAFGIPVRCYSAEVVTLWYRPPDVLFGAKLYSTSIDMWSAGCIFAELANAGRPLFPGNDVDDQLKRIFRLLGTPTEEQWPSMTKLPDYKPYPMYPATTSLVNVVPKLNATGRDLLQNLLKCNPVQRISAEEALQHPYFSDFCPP
CDK5/p25NCK, sequence (Q15078 99-307 partner limits assumed, species assumed): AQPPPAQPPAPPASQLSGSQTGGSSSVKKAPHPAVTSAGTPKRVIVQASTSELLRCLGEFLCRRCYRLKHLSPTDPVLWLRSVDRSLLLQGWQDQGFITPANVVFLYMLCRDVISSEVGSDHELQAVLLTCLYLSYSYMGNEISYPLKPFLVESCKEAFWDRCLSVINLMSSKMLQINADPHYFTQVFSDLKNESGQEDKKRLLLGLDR
Excerpt: as §1, §2, §3, §4, §5, §6, §7, §8

Another test addresses CDK1/CycE1 (Homo sapiens, UniProt P06493). In words: ADP-Glo kinase assay on CDK enzymatic activity, CDK1/CycE1. The following applies: ADP-Glo; 10 concentrations from 10 μM, 4-fold; 60 min room temperature; read-out: CDK1/CycE1/nM (IC50). The procedure: as §1, §3, §4, §5, §6, §7, §8

CDK1/CycE1, sequence (P06493 whole entry, species assumed): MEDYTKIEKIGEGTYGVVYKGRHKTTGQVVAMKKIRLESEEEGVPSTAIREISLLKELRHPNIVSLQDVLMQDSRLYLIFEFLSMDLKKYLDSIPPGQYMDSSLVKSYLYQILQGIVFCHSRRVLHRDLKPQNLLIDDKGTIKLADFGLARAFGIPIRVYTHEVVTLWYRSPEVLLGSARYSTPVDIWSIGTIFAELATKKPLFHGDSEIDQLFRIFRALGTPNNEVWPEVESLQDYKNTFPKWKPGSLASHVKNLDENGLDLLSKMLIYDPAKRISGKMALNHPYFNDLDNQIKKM
CDK1/CycE1, sequence (P24864 whole entry partner, species assumed): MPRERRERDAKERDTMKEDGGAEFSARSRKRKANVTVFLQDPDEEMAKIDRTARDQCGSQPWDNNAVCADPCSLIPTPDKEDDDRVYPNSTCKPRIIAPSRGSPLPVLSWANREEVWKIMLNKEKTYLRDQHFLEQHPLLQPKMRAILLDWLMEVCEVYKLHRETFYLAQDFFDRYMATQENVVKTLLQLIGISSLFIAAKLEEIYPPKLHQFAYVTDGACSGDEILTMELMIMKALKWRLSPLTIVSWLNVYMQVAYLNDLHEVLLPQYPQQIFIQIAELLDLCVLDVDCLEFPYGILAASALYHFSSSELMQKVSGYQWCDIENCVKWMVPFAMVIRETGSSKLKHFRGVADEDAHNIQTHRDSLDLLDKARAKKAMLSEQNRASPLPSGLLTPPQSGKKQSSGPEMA
CDK3/CycE1, sequence (Q00526 whole entry, species assumed): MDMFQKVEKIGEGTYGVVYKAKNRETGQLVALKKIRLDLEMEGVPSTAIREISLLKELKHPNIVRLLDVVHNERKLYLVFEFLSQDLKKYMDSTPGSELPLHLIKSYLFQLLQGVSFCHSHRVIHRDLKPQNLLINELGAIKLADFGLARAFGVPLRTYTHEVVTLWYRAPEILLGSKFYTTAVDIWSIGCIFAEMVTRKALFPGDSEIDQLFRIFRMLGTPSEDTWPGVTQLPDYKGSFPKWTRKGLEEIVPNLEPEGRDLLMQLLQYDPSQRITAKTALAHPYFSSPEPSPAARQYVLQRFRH
CDK3/CycE1, sequence (P24864 whole entry partner, species assumed): as the sequence (P24864 whole entry partner, species assumed) above

Turning to `CC(=O)N[C@@H]1CCC[C@H](C(=O)Nc2cc3c(NC(C)C)nc(C#N)cc3cn2)C1` [Compound 2, (1S,3R)-3-acetamido-N-(7-cyano-5-(isopropylamino)-2,6-naphthyridin-3-yl)cyclohexane-1-carboxamide], the IC50 against CDK9/CycT1 was found to be 8 nM; against CDK2/CycA2, 669 nM; at CDK3/CycE1 it was 179 nM; on CDK5/p25NCK, 783 nM.
`C#Cc1cc2cnc(NC(=O)[C@H]3CCC[C@@H](NC(C)=O)C3)cc2c(NC(C)C)n1` [Compound 13, (1S,3R)-3-acetamido-N-(7-ethynyl-5-(isopropylamino)-2,6-naphthyridin-3-yl)cyclohexane-1-carboxamide]: the IC50 against CDK9/CycT1 is 13 nM; against CDK2/CycA2, 402 nM; against CDK3/CycE1, 41 nM; against CDK5/p25NCK, 527 nM.
On the same counts, the results for `CC(=O)N[C@@H]1CCC[C@H](C(=O)Nc2cc3c(NC(C)C)nc(CCO)cc3cn2)C1` [Compound 14, (1S,3R)-3-acetamido-N-(7-(2-hydroxyethyl)-5-(isopropylamino)-2,6-naphthyridin-3-yl)cyclohexane-1-carboxamide] are 11 nM, 284 nM, 91 nM and 187 nM.
On the same counts, the results for `CC(=O)N1CCC[C@H](C(=O)Nc2cc3c(NC(C)C)nc(C#N)cc3cn2)C1` [Compound 24, (S)-1-acetyl-N-(7-cyano-5-(isopropylamino)-2,6-naphthyridin-3-yl)piperidine-3-carboxamide] are 26 nM, 3340 nM, 862 nM and 5340 nM.
On the same counts, the results for `CC(C)Nc1nc(C#N)cc2cnc(N[C@H]3CC[C@@H](N)C3)cc12` [Compound 29, 7-(((1S,3R)-3-aminocyclopentyl)amino)-1-(isopropylamino)-2,6-naphthyridine-3-carbonitrile] are 4 nM, 514 nM, 1210 nM and 461 nM.
Consider `CC(C)(C)Nc1nc(C#N)cc2cnc(N[C@H]3CC[C@H](N)C3)cc12` [Compound 34, 7-(((1S,3S)-3-aminocyclopentyl)amino)-1-(tert-butylamino)-2,6-naphthyridine-3-carbonitrile], for which the IC50 on CDK9/CycT1 was 2 nM; against CDK2/CycA2, 128 nM; against CDK3/CycE1 it was 137 nM; at CDK5/p25NCK it was 238 nM.
Take `CC(C)(C)Nc1nc(C#N)cc2cnc(N[C@H]3CC[C@H](O)C3)cc12` [Compound 35, 1-(tert-butylamino)-7-(((1S,3S)-3hydroxycyclopentyl)amino)-2,6-naphthyridine-3-carbonitrile]: the IC50 on CDK9/CycT1 is 1 nM; against CDK2/CycA2, 14 nM; against CDK3/CycE1, 35 nM; on CDK5/p25NCK, 36 nM.
On to `CC(C)Nc1nc(C#N)cc2cnc(N[C@H]3CCCNC3)cc12` [Compound 38, (S)-1-(isopropylamino)-7-(piperidin-3-ylamino)-2,6-naphthyridine-3-carbonitrile], for which the IC50 at CDK9/CycT1 was 2 nM; on CDK1/CycE1, 83 nM; at CDK2/CycA2, 110 nM; on CDK3/CycE1, 66 nM; on CDK5/p25NCK, 103 nM.
For the compound `CC(C)Nc1nc(C#N)cc2cnc(N[C@@H]3CCCNC3)cc12` [Compound 39, (R)-1-(isopropylamino)-7-(piperidin-3-ylamino)-2,6-naphthyridine-3-carbonitrile], the IC50 amounted to 2 nM on CDK9/CycT1, 84 nM against CDK2/CycA2, 278 nM on CDK3/CycE1 and 161 nM against CDK5/p25NCK.
As to `CC(C)Nc1nc(C#N)cc2cnc(N[C@@H]3CNCC(F)(F)C3)cc12` [Compound 43, (S)-7-((5,5-difluoropiperidin-3-yl)amino)-1-(isopropylamino)-2,6-naphthyridine-3-carbonitrile], the IC50 against CDK9/CycT1 turned out to be 2 nM; against CDK2/CycA2 it was 13 nM; against CDK3/CycE1, 75 nM; on CDK5/p25NCK it was 23 nM.
As to `CC(C)Nc1nc(C#N)cc2cnc(N[C@@H]3CN4CCC3CC4)cc12` [Compound 44, (S)-1-(isopropylamino)-7-(quinuclidin-3-ylamino)-2,6-naphthyridine-3-carbonitrile], the IC50 against CDK9/CycT1 came out at 2 nM; on CDK2/CycA2, 1170 nM; against CDK3/CycE1, 288 nM; against CDK5/p25NCK, 3630 nM.
In the case of `CCC(CC)Nc1nc(C#N)cc2cnc(N[C@H]3CC[C@H](N)C3)cc12` [Compound 48, 7-(((1S,3S)-3-aminocyclopentyl)amino)-1-(pentan-3-ylamino)-2,6-naphthyridine-3-carbonitrile], the IC50 against CDK9/CycT1 is 2 nM; at CDK2/CycA2 it was 199 nM; against CDK3/CycE1, 477 nM; against CDK5/p25NCK, 266 nM.
On to `N#Cc1cc2cnc(N[C@H]3CC[C@H](N)C3)cc2c(NC2CCCC2)n1` [Compound 49, 7-(((1S,3S)-3-aminocyclopentyl)amino)-1-(cyclopentylamino)-2,6-naphthyridine-3-carbonitrile], for which the IC50 against CDK9/CycT1 was found to be 2 nM; against CDK2/CycA2, 57 nM; against CDK3/CycE1 it was 105 nM; against CDK5/p25NCK it was 93 nM.
Take `CC1(Nc2nc(C#N)cc3cnc(N[C@H]4CC[C@H](N)C4)cc23)CC1` [Compound 50, 7-(((1S,3S)-3-aminocyclopentyl)amino)-1-((1-methylcyclopropyl)amino)-2,6-naphthyridine-3-carbonitrile]: the IC50 was determined as 2 nM on CDK9/CycT1, 73 nM against CDK2/CycA2, 208 nM on CDK3/CycE1 and 119 nM against CDK5/p25NCK.
Regarding `CC(C)Oc1nc(C#N)cc2cnc(N[C@H]3CC[C@H](N)C3)cc12` [Compound 51, 7-(((1S,3S)-3-aminocyclopentyl)amino)-1-isopropoxy-2,6-naphthyridine-3-carbonitrile], the IC50 at CDK9/CycT1 was 1 nM; against CDK2/CycA2 it was 73 nM; against CDK3/CycE1 it was 88 nM; against CDK5/p25NCK, 142 nM.
Regarding `CC(C)Nc1nc(C(F)F)cc2cnc(N[C@H]3CCCNC3)cc12` [Compound 54, (S)-3-(difluoromethyl)-N^1-isopropyl-N^7-(piperidin-3-yl)-2,6-naphthyridine-1,7-diamine], the IC50 was found to be 1 nM on CDK9/CycT1, 15 nM against CDK2/CycA2, 14 nM at CDK3/CycE1 and 10 nM against CDK5/p25NCK.
For `N#Cc1cc2cnc(N[C@H]3CC[C@H](N)C3)cc2c(NCC2(C#N)CCOCC2)n1` [Compound 60, 7-(((1S,3S)-3-aminocyclopentyl)amino)-1-(((4-cyanotetrahydro-2H-pyran-4-yl)methyl)amino)-2,6-naphthyridine-3-carbonitrile], the IC50 is 29 nM on CDK9/CycT1, 1810 nM at CDK2/CycA2, at least 12100 nM on CDK3/CycE1 and 8390 nM on CDK5/p25NCK.
In the case of `CC(Nc1nc(C#N)cc2cnc(N[C@H]3CCCNC3)cc12)C(F)(F)F` (stereo partly drawn) [Compound 61, 7-(((S)-piperidin-3-yl)amino)-1-((1,1,1-trifluoropropan-2-yl)amino)-2,6-naphthyridine-3-carbonitrile], the IC50 on CDK9/CycT1 turned out to be 3 nM; on CDK1/CycE1, 173 nM; against CDK2/CycA2, 227 nM; against CDK3/CycE1, 124 nM; against CDK5/p25NCK, 484 nM.
On the same counts, the results for `CC(C)Nc1nc(C#N)cc2cnc(N[C@H]3CC[C@H](C)NC3)cc12` [Compound 103, 1-(isopropylamino)-7-(((3S,6S)-6-methylpiperidin-3-yl)amino)-2,6-naphthyridine-3-carbonitrile] are 3 nM, 206 nM, 167 nM, 398 nM and 294 nM.
On to `N#Cc1cc2cnc(N[C@H]3CCCNC3)cc2c(N[C@H](CO)c2ccccc2)n1` [Compound 104, 1-(((S)-2-hydroxy-1-phenylethyl)amino)-7-(((S)-piperidin-3-yl)amino)-2,6-naphthyridine-3-carbonitrile], for which the IC50 on CDK9/CycT1 was determined as 10 nM; against CDK2/CycA2, 888 nM; on CDK3/CycE1, 550 nM; against CDK5/p25NCK, 2200 nM.
